Non-standard residues stand in square brackets, D forms with d. Residues, ends and D or L forms follow the SMILES beside them. *: point of attachment. Nphe = O=C(O)CNCc1ccccc1; Bz = O=C(c1ccccc1)*
What was measured:
Assay type in all cases: physicochemical
[1] = Gelation test in solvents at room temperature; parameters: key to Gelation test result: I, insoluble; P, precipitating; S, soluble at ~20 mg/mL; G, gel at room temperature; number is minimum gelation concentration; settings: for preliminary MGC (stable gel) / Gelation result / concentration of slightly unstable or partial gel (UG): Table 3; for Gelation test result: room temperature
Procedure: (§1) Gelation tests were performed by adding incremental amounts of compounds to a solvent or solvent system at room temperature and observing the results (i.e., gel formation, solubility of compounds, insolubility of compounds, or formation of a precipitate). […] The term “precipation” means that the compound dissolves upon heating and sonicating, however, it crashes out of solution when the heat is removed.
(§2) After the compounds were synthesized, they were screened for gelation properties. […] For the compounds with new chiral centers, they formed gels in aqueous environment preferentially.

[2] = Gelation test in solvents at room temperature; parameters: key: S, soluble (starting test at 20 mg/mL); I, insoluble; P, precipitate; G, stable gel, the numbers after G are preliminary MGCs in mg/mL; UG, slightly unstable gels or partial gels, concentrations are 20 mg/mL unless otherwise noted; settings: Table 3
Procedure: as §1, §2

[3] = Gelation test in solvents at room temperature; parameters: key: I, insoluble; P, precipitating; S, soluble at ~20 mg/mL; G, gel at room temperature; number is minimum gelation concentration; settings: Table 3
Procedure: as §1, §2

Row | SMILES | Gelation result ([1]; EtOH) | Gelation result ([2]; DMSO:H2O 1:2) | Gelation result ([2]; EtOH:H2O (1:2)) | Gelation result ([2]; Water) | Gelation result ([3]; Hexane) | preliminary MGC (stable gel) ([1]; DMSO:H2O 1:1) [mg/mL] | preliminary MGC (stable gel) ([1]; DMSO:H2O 1:2) [mg/mL] | Gelation result ([2]; DMSO:H2O 1:1) | also measured
1 | COc1ccc(C(C(=O)NC2CCCCC2)N(Cc2ccccc2)C(C)=O)cc1 (racemic) [Compound 37] | S (S, soluble (starting test at 20 mg/mL)) | P | G | UG | I | – | – | – | preliminary MGC (stable gel) ([1]; EtOH:H2O (1:2)): 15.0 mg/mL; concentration of slightly unstable or partial gel (UG) ([1]; Water): 17000 µg/mL
2 | COc1ccc(C(C(=O)NC2CCCCC2)N(C(C)=O)[C@H](C)c2ccccc2)cc1 (single isomer, unassigned) [Compound 38a] | S (S, soluble (starting test at 20 mg/mL)) | UG | – | UG | – | – | – | – | concentration of slightly unstable or partial gel (UG) ([1]; DMSO:H2O 1:2): 18000 µg/mL; concentration of slightly unstable or partial gel (UG) ([1]; Water): 17000 µg/mL; Gelation result ([2]; Hexane): P; Gelation result ([3]; EtOH:H2O (1:2)): I
3 | COc1ccc(C(C(=O)NC2CCCCC2)N(C(C)=O)[C@H](C)c2ccccc2)cc1 (single isomer, unassigned) [Compound 38b] | – | – | P | G | – | – | – | – | preliminary MGC (stable gel) ([1]; Water): 21.0 mg/mL; Gelation result ([3]; DMSO:H2O 1:2): I
4 | CCOC(=O)CNC(=O)CN(Cc1ccccc1)C(=O)c1ccccc1 [Compound 22, Ethyl 2-(2-(N-benzylbenzamido)acetamido)acetate] (Bz-[Nphe]-Gly-OEt) | – | – | – | – | – | – | – | – | Gelation test result ([1]; DMSO:H2O (1:1)): S (S, soluble at ~20 mg/mL); Gelation test result ([1]; DMSO:H2O (1:2)): P; Gelation test result ([1]; EtOH): P; Gelation test result ([1]; EtOH:H2O (1:1)): P; Gelation test result ([1]; EtOH:H2O (1:2)): P; Gelation test result ([1]; H2O): S (S, soluble at ~20 mg/mL); Gelation test result ([1]; Hexane): S (S, soluble at ~20 mg/mL)
5 | CC1(C)OCC(CN(CC(=O)NC2CCCCC2)C(=O)c2ccc(Br)cc2)O1 (stereo not drawn) [Compound 27] | – | G | P | – | – | 20.0 | 20.0 | G | Gelation result ([1]; Hexane): S (S, soluble (starting test at 20 mg/mL)); Gelation result ([1]; Water): S (S, soluble (starting test at 20 mg/mL)); Gelation result ([2]; EtOH): P
6 | O=C(CN(Cc1ccccc1)C(=O)c1ccc(C(=O)N(CC(=O)NC2CCCCC2)Cc2ccccc2)cc1)NC1CCCCC1 [Compound 29] | – | G | P | UG | I | – | 20.0 | P | concentration of slightly unstable or partial gel (UG) ([1]; Water): 20000 µg/mL; Gelation result ([2]; EtOH): UG
7 | CCOC(=O)CNC(=O)CN(Cc1ccccc1)C(=O)c1ccc(C(=O)N(CC(=O)NCC(=O)OCC)Cc2ccccc2)cc1 [Compound 30] | S (S, soluble (starting test at 20 mg/mL)) | P | P | – | I | – | – | P | Gelation result ([3]; Water): I
8 | COC1OC2COC(c3ccccc3)OC2C(O)C1N(CC(=O)NC1CCCCC1)C(C)=O (stereo not drawn) [Compound 31] | – | G | – | P | I | 10.0 | 10.0 | G | Gelation result ([1]; EtOH:H2O (1:2)): S (S, soluble (starting test at 20 mg/mL)); preliminary MGC (stable gel) ([1]; EtOH): 10.0 mg/mL; Gelation result ([2]; EtOH): G
9 | CCOC(=O)CNC(=O)CN(C(=O)c1ccc(Br)cc1)C1C(OCC)OC2COC(c3ccccc3)OC2C1O (stereo not drawn) [Compound 32] | S (S, soluble (starting test at 20 mg/mL)) | UG | G | P | I | 20.0 | – | G | concentration of slightly unstable or partial gel (UG) ([1]; DMSO:H2O 1:2): 20000 µg/mL; preliminary MGC (stable gel) ([1]; EtOH:H2O (1:2)): 20.0 mg/mL
10 | CCOC(=O)CNC(=O)CN(CCNC(=O)OC(C)(C)C)C(=O)Cc1ccc2ccccc2c1 [Compound 33] | S (S, soluble (starting test at 20 mg/mL)) | P | P | P | I | – | – | P | –
11 | CCOC(=O)CNC(=O)CN(Cc1ccc(OC)cc1)C(=O)CCC(=O)NC1C(OC)OC2COC(c3ccccc3)OC2C1O (stereo not drawn) [Compound 34] | – | G | G | G | I | 20.0 | 10.0 | G | preliminary MGC (stable gel) ([1]; EtOH:H2O (1:2)): 20.0 mg/mL; preliminary MGC (stable gel) ([1]; EtOH): 10.0 mg/mL; preliminary MGC (stable gel) ([1]; Water): 10.0 mg/mL; gelation properties (in words) ([1]; screening of Table 3 compounds): able to gelate in water as well as almost all the tested solvents; Gelation result ([2]; EtOH): G
12 | COc1ccc(CN(CC(=O)NCS(=O)(=O)c2ccc(C)cc2)C(=O)c2ccc(Br)cc2)cc1 [Compound 35] | – | G | G | – | I | 20.0 | 20.0 | G | preliminary MGC (stable gel) ([1]; EtOH:H2O (1:2)): 10.0 mg/mL; Gelation result ([2]; EtOH): P; Gelation result ([3]; Water): I
13 | COc1ccc(CN(CC(=O)Nc2ccc(Oc3ccc(NC(=O)CN(Cc4ccc(OC)cc4)C(=O)c4ccc(Br)cc4)cc3)cc2)C(=O)c2ccc(Br)cc2)cc1 [Compound 36] | S (S, soluble (starting test at 20 mg/mL)) | P | P | P | I | – | – | UG | concentration of slightly unstable or partial gel (UG) ([1]; DMSO:H2O 1:1): 20000 µg/mL
14 | O=C(CN(C(=O)c1ccccc1)c1ccccc1)NC1CCCCC1 [Compound 39] | S (S, soluble (starting test at 20 mg/mL)) | P | P | P | – | – | – | P | Gelation result ([2]; Hexane): P
15 | COC1OC(CO)C(O)C(O)C1N(CC(=O)NC1CCCCC1)C(=O)c1ccc(Br)cc1 (stereo not drawn) [Compound 40] | S (S, soluble (starting test at 20 mg/mL)) | G | P | – | – | 20.0 | 20.0 | G | Gelation result ([1]; Hexane): S (S, soluble (starting test at 20 mg/mL)); Gelation result ([3]; Water): I
16 | O=C(CN(CC(O)CO)C(=O)c1ccc(Br)cc1)NC1CCCCC1 (stereo not drawn) [Compound 41] | S (S, soluble (starting test at 20 mg/mL)) | – | – | – | I | – | – | – | Gelation result ([1]; DMSO:H2O 1:1): S (S, soluble (starting test at 20 mg/mL)); Gelation result ([1]; DMSO:H2O 1:2): S (S, soluble (starting test at 20 mg/mL)); Gelation result ([1]; EtOH:H2O (1:2)): S (S, soluble (starting test at 20 mg/mL)); Gelation result ([1]; Water): S (S, soluble (starting test at 20 mg/mL))
17 | COc1ccc(CN(CC(=O)NCC(=O)O)C(=O)c2ccc(Br)cc2)cc1 [Compound 42] | S (S, soluble (starting test at 20 mg/mL)) | P | P | P | I | – | – | P | –
18 | O=C(O)CNC(=O)CN(Cc1ccccc1)C(=O)c1ccc(C(=O)N(CC(=O)NCC(=O)O)Cc2ccccc2)cc1 [Compound 43] | S (S, soluble (starting test at 20 mg/mL)) | UG | – | P | I | – | – | UG | concentration of slightly unstable or partial gel (UG) ([1]; DMSO:H2O 1:1): 20000 µg/mL; concentration of slightly unstable or partial gel (UG) ([1]; DMSO:H2O 1:2): 20000 µg/mL
